According to PubChem BioAssay (NCI):
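Growth conditions: 96-well plates. Treatment: test compound, 48 hours, 5 concentrations. Analysis: linear interpolation between bracketing concentrations; unreached endpoints set to highest concentration. GI50 = concentration required for 50% inhibition of growth. Definition used: TGI = concentration required for complete inhibition of growth.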

Experiments:
Experiment in all cases: NCI tumour cell line growth inhibition, 48 h
CCRF-CEM leukemia = tested on: CCRF-CEM leukemia
HL-60(TB) leukemia = tested on: HL-60(TB) leukemia
HOP-62 NSCLC = tested on: HOP-62 NSCLC
HT29 colon = tested on: HT29 colon
MOLT-4 leukemia = tested on: MOLT-4 leukemia
NCI-H460 lung = tested on: NCI-H460 lung
RPMI-8226 leukemia = tested on: RPMI-8226 leukemia
RXF 393 renal = tested on: RXF 393 renal
SF-539 CNS = tested on: SF-539 CNS

Row | Compound | TGI (CCRF-CEM leukemia) | TGI (HL-60(TB) leukemia) | TGI (HOP-62 NSCLC) | TGI (HT29 colon) | TGI (MOLT-4 leukemia) | TGI (NCI-H460 lung) | TGI (RPMI-8226 leukemia) | TGI (RXF 393 renal) | TGI (SF-539 CNS) | GI50 (CCRF-CEM leukemia) | GI50 (HL-60(TB) leukemia) | GI50 (HOP-62 NSCLC) | GI50 (HT29 colon) | GI50 (MOLT-4 leukemia) | GI50 (NCI-H460 lung) | GI50 (RPMI-8226 leukemia) | GI50 (SF-539 CNS) | GI50 (RXF 393 renal)
1 | O=C1C(c2ccccc2)=C(c2ccccc2)C(c2ccc(Sc3ccc(C4=C(c5ccccc5)C(=O)C(c5ccccc5)=C4c4ccccc4)cc3)cc2)=C1c1ccccc1 | > 100 µM | > 100 µM | > 100 µM | > 100 µM | > 100 µM | > 100 µM | > 100 µM | > 100 µM | > 100 µM |  |  |  |  |  |  |  |  | 
2 | COc1ccc2c(c1)[n+]([O-])c(/C(C)=N/NC(=O)c1ccccc1O)c(C)[n+]2[O-] | > 100 µM | > 100 µM | > 100 µM | > 100 µM | > 100 µM | > 100 µM | > 100 µM | > 100 µM | > 100 µM |  |  |  |  |  |  |  |  | 
3 | COc1cc(O)c2c(c1)C(=O)C1=C(C2=O)C(O)C[C@@](C)(O)C1 (some centres undefined) | > 24.9 µM | 1.5 µM | 21.2 µM | 2.39 µM | 7.63 µM | 4.96 µM | 6.52 µM | 3.05 µM | 5.74 µM |  |  |  |  |  |  |  |  | 
4 | Cc1ccc(S(=O)(=O)OCCOCCOCCOCCOCCOS(=O)(=O)c2ccc(C)cc2)cc1 | 66.4 µM |  | > 100 µM | > 100 µM | 41.4 µM | > 100 µM | 92.7 µM | > 100 µM |  |  |  |  |  |  |  |  |  | 
5 | OCC1CCCC1O (centres undefined) | > 100 µM | > 100 µM |  | > 100 µM | > 100 µM | > 100 µM | > 100 µM | > 100 µM | > 100 µM |  |  |  |  |  |  |  |  | 
6 | COc1cccc(C2SCc3nc4ccccc4n32)c1 (centres undefined) | > 100 µM | > 100 µM | > 100 µM | > 100 µM | > 100 µM | > 100 µM |  | > 100 µM | > 100 µM |  |  |  |  |  |  |  |  | 
7 | Cc1ccc(C2=Nc3ccccc3S(=O)C(c3ccc4c(c3)OCO4)C2)cc1 (centres undefined) | 83.9 µM | 59.1 µM | > 100 µM | 31.5 µM | > 100 µM | > 10 µM |  | 32.1 µM | 46.3 µM |  |  |  |  |  |  |  |  | 
8 | O=C1C(=O)N(c2ccc(Cl)cc2)C(=O)C(=Nc2cccc3c(=O)[nH][nH]c(=O)c23)C1c1nc2ccccc2o1 (centres undefined) | > 100 µM | > 100 µM | > 100 µM | > 100 µM | > 100 µM | > 100 µM | > 100 µM |  | > 100 µM |  |  |  |  |  |  |  |  | 
9 | CCCCCCCCCCOC(=O)NCCC | 48.4 µM | 32.7 µM |  | 49.7 µM | 43.6 µM | 65.9 µM | 43.3 µM | 39.9 µM | > 100 µM |  |  |  |  |  |  |  |  | 
10 | COc1ccc2nc3cccc([N+](=O)[O-])c3c(NC(C)CN(C)C)c2c1 (centres undefined) | 7.62 µM |  | 2.96 µM | 6.8 µM | 4.13 µM | 3.73 µM | 6 µM |  | 6.46 µM | 2.21 µM | 2.67 µM | 1.18 µM | 1.63 µM | 1.23 µM | 0.51 µM | 1.78 µM | 2.66 µM | 
11 | O=C(O)c1c2c(cc3c(=O)cc(-c4ccccc4)oc13)CCCC2 | > 100 µM |  | > 100 µM | > 100 µM | > 100 µM | > 100 µM | > 100 µM |  | > 100 µM |  |  |  |  |  |  |  |  | 
12 | CC[PH+](CC)CC.CC[PH+](CC)CC.[Au] | 11.9 µM | 2.09 µM | 36.6 µM | 32.4 µM | 24.1 µM | 60.9 µM | 30.2 µM |  | 25.3 µM | 2.04 µM | 0.345 µM | 22 µM | 16.3 µM | 5.33 µM | 23.5 µM | 3.87 µM | 8.3 µM | 
13 | Cc1c2c(nn1-c1ccc(S(=O)(=O)NC(=S)NC(=O)c3ccccc3)cc1)-c1ccccc1CC2 | > 100 µM | > 100 µM | > 100 µM | > 100 µM | > 100 µM | > 100 µM | > 100 µM |  |  | > 100 µM | 3.85 µM | > 100 µM | > 100 µM | > 100 µM | 45.1 µM | 36.3 µM |  | 
14 | O=C(CSSCC(=O)Nc1ccc(Br)cc1)Nc1ccc(Br)cc1 |  | 48.5 µM | 25.9 µM | 47.6 µM | 67 µM | 37.7 µM | 64.3 µM | 33.2 µM | 31.6 µM |  |  |  |  |  |  |  |  | 
15 | CN(C)CCNC(=O)c1ccc2oc3cc4ccccc4c(=O)n3c2c1 |  | > 100 µM | > 100 µM | > 100 µM | > 100 µM | > 100 µM | > 100 µM | 70.4 µM | 47.3 µM |  | 30.4 µM | > 100 µM | 28 µM | 64.2 µM | 42.2 µM | 51.2 µM | 22 µM | 23.8 µM
16 | O=C(CC1(O)C(=O)Nc2c(Cl)cc(Cl)cc21)c1ccc(F)cc1 (centres undefined) |  |  | > 100 µM | 70.1 µM |  | > 100 µM | 61.4 µM | 88.3 µM | 57.4 µM |  |  |  |  |  |  |  |  | 
17 | N#CCc1nnc(N)o1 | > 100 µM | > 100 µM |  |  | > 100 µM |  | > 100 µM |  | > 100 µM |  |  |  |  |  |  |  |  | 
18 | COC12OCCN(C)C1=CC(=O)C1(C)N=NCC12 (centres undefined) | > 100 µM |  |  | > 100 µM | > 100 µM | > 100 µM | > 100 µM | > 100 µM | > 100 µM |  |  |  |  |  |  |  |  | 
19 | CCOC(=O)C1SC(=Nc2ccc(Cl)cc2Cl)N=C1C (centres undefined) |  | > 100 µM | > 100 µM | > 100 µM |  | > 100 µM |  | > 100 µM | > 100 µM |  |  |  |  |  |  |  |  | 
